Experimental data: ChEMBL document CHEMBL1201862, “PubChem BioAssay data set” (2004)
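Following 48 hours of exposure in 96-well plates, responses at five concentrations were used to interpolate endpoints linearly. GI50 marks 50% less growth.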 Calls of active or inactive are those of the source. No stated cut-off is given here; in the data, active = GI50 up to about 1.1 µM and inactive = higher.

Key:
Experiment in all cases: NCI anticancer screen, dose series, 48 h
SN12C = tested on: SN12C
SF-295 = tested on: SF-295
OVCAR-3 = tested on: OVCAR-3
SK-MEL-2 = tested on: SK-MEL-2
TK-10 = tested on: TK-10
HOP-92 = tested on: HOP-92
OVCAR-5 = tested on: OVCAR-5
SF-539 = tested on: SF-539
OVCAR-4 = tested on: OVCAR-4
MCF7 = tested on: MCF7
A498 = tested on: A498
MDA-MB-435 = tested on: MDA-MB-435
T47D = tested on: T47D
RXF 393 = tested on: RXF 393
SNB-75 = tested on: SNB-75
CAKI-1 = tested on: CAKI-1
HL-60 = tested on: HL-60
MDA-N = tested on: MDA-N
CCRF-CEM = tested on: CCRF-CEM
SR = tested on: SR

Row | Structure (SMILES) | GI50 (SN12C) | GI50 (SF-295) | GI50 (OVCAR-3) | GI50 (SK-MEL-2) | GI50 (TK-10) | GI50 (HOP-92) | GI50 (OVCAR-5) | GI50 (SF-539) | GI50 (OVCAR-4) | GI50 (MCF7) | GI50 (A498) | GI50 (MDA-MB-435) | GI50 (T47D) | GI50 (RXF 393) | GI50 (SNB-75) | GI50 (CAKI-1) | GI50 (HL-60) | GI50 (MDA-N) | GI50 (CCRF-CEM) | GI50 (SR)
1 | Oc1ccc2ccccc2c1OCc1nnc(CCCCCCCCc2nnc(COc3c(O)ccc4ccccc34)n2Nc2ccccc2)n1Nc1ccccc1 | 35.7 µM (inactive) | 0.223 µM (active) | 12.9 µM (inactive) | 18.2 µM (inactive) | 22.6 µM (inactive) | 17.2 µM (inactive) | 2.51 µM (inactive) | 6.85 µM (inactive) | 10.7 µM (inactive) | 5.62 µM (inactive) | 40.7 µM (inactive) | 2.43 µM (inactive) | 25.9 µM (inactive) | 28.5 µM (inactive) | 38.4 µM (inactive) | 12.3 µM (inactive) |  |  |  | 
2 | CC(=O)NC(=O)/N=C1\NCCC(=O)N1CCc1c[nH]c2ccccc12 | > 100 µM (inactive) | > 100 µM (inactive) | > 100 µM (inactive) | > 100 µM (inactive) | > 100 µM (inactive) | > 100 µM (inactive) | > 100 µM (inactive) | > 100 µM (inactive) | > 100 µM (inactive) | > 100 µM (inactive) | > 100 µM (inactive) | > 100 µM (inactive) | > 100 µM (inactive) | > 100 µM (inactive) |  | > 100 µM (inactive) | > 100 µM (inactive) | > 100 µM (inactive) | > 100 µM (inactive) | 
3 | CC(C)=CC(C)C(C(O)CCC1(c2ccoc2)OCCO1)S(=O)(=O)c1ccccc1 (stereo unspecified) | > 100 µM (inactive) | > 100 µM (inactive) | > 100 µM (inactive) | > 100 µM (inactive) | > 100 µM (inactive) |  | > 100 µM (inactive) | > 100 µM (inactive) | > 100 µM (inactive) | > 100 µM (inactive) | > 100 µM (inactive) | > 100 µM (inactive) | > 100 µM (inactive) | > 100 µM (inactive) | > 100 µM (inactive) | > 100 µM (inactive) |  | > 100 µM (inactive) | > 100 µM (inactive) | 
4 | CCC1(CCSC(=N)N)C(=O)NC(=O)NC1=O | > 100 µM (inactive) | > 100 µM (inactive) | > 100 µM (inactive) | > 100 µM (inactive) | > 100 µM (inactive) | > 100 µM (inactive) | > 100 µM (inactive) | > 100 µM (inactive) | > 100 µM (inactive) | > 100 µM (inactive) | > 100 µM (inactive) | > 100 µM (inactive) |  | > 100 µM (inactive) |  | > 100 µM (inactive) | 48.9 µM (inactive) | > 100 µM (inactive) | > 100 µM (inactive) | > 100 µM (inactive)
5 | CN1CCC2(CC1)/C(=N/C1CCCCC1)NC(=O)N2c1ccccc1 | > 100 µM (inactive) | > 100 µM (inactive) |  |  | > 100 µM (inactive) | 43.7 µM (inactive) | > 100 µM (inactive) |  |  | > 100 µM (inactive) | > 100 µM (inactive) |  | > 100 µM (inactive) | > 100 µM (inactive) | > 100 µM (inactive) |  | > 100 µM (inactive) |  | > 100 µM (inactive) | > 100 µM (inactive)
6 | COc1cccc(N2C(=O)C3c4[nH]c5ccccc5c4C4c5ccccc5CCC4C3C2=O)c1 (stereo unspecified) | > 6.03 µM (inactive) | > 10 µM (inactive) | 5.5 µM (inactive) | > 10 µM (inactive) | > 10 µM (inactive) | 6.15 µM (inactive) | > 10 µM (inactive) | 2.5 µM (inactive) | 2.75 µM (inactive) | > 10 µM (inactive) | 2.77 µM (inactive) | > 7.5 µM (inactive) | > 10 µM (inactive) | > 6.62 µM (inactive) | 2.7 µM (inactive) | > 10 µM (inactive) | > 10 µM (inactive) | > 8.28 µM (inactive) | > 10 µM (inactive) | 
7 | COc1ccc(-c2nc(SCC(=O)NNC(=S)Nc3ccccc3)[nH]c2-c2ccc(OC)cc2)cc1 | 21.8 µM (inactive) | 19.1 µM (inactive) | 14.3 µM (inactive) | 18.4 µM (inactive) | 40.6 µM (inactive) | 20.8 µM (inactive) | 23.7 µM (inactive) | 15.7 µM (inactive) | 33.5 µM (inactive) | 20.5 µM (inactive) | 22.9 µM (inactive) | 18.2 µM (inactive) | 16.6 µM (inactive) | 16.9 µM (inactive) | 24.9 µM (inactive) | 34.3 µM (inactive) | 4.63 µM (inactive) | 20.6 µM (inactive) | 22.7 µM (inactive) | 
8 | Cc1cc2c(cc1Cl)SC(NNC1=NCCN1)=NS2(=O)=O | > 10 µM (inactive) | > 10 µM (inactive) | > 10 µM (inactive) | > 10 µM (inactive) | > 10 µM (inactive) |  | > 10 µM (inactive) | > 10 µM (inactive) | > 10 µM (inactive) | 0.00248 µM (active) | > 10 µM (inactive) | > 10 µM (inactive) | > 10 µM (inactive) | > 10 µM (inactive) | > 10 µM (inactive) | > 10 µM (inactive) | > 10 µM (inactive) | > 10 µM (inactive) | > 10 µM (inactive) | 
9 | C=C1CC2C[C@H](OS(=O)(=O)c3ccc(C)cc3)C(C1)N2C (stereo partly specified) | > 100 µM (inactive) | > 100 µM (inactive) | > 100 µM (inactive) | > 100 µM (inactive) | > 100 µM (inactive) |  |  | > 100 µM (inactive) | > 100 µM (inactive) | > 100 µM (inactive) |  | > 100 µM (inactive) | > 100 µM (inactive) | > 100 µM (inactive) | 61.9 µM (inactive) | > 100 µM (inactive) | > 100 µM (inactive) | > 100 µM (inactive) | > 100 µM (inactive) | > 100 µM (inactive)
10 | CC12CCC(C(=O)O1)C(C)(C)O2 (stereo unspecified) | > 100 µM (inactive) | > 100 µM (inactive) | > 100 µM (inactive) | > 100 µM (inactive) | > 100 µM (inactive) | > 100 µM (inactive) | > 100 µM (inactive) | > 100 µM (inactive) | > 100 µM (inactive) | > 100 µM (inactive) | > 100 µM (inactive) | > 100 µM (inactive) |  | > 100 µM (inactive) | > 100 µM (inactive) | > 100 µM (inactive) | > 100 µM (inactive) | > 100 µM (inactive) | > 100 µM (inactive) | > 100 µM (inactive)
11 | CN(C)CC(NC(NCS)C(=O)NCCNc1ccc(NCCNC(=O)C(NCS)NC(CN(C)C)OCCl)c2c1C(=O)c1c(O)ccc(O)c1C2=O)OCCl (stereo unspecified) | 0.0311 µM (active) | 0.00518 µM (active) | 0.387 µM (active) | 1.45 µM (inactive) | 0.619 µM (active) |  | 0.525 µM (active) |  | 0.502 µM (active) | 0.01 µM (active) | 0.0635 µM (active) | 0.151 µM (active) | 0.0327 µM (active) |  | 0.0318 µM (active) | < 0.001 µM (active) |  | 0.267 µM (active) |  | 
12 | C=CCOC(=O)NC1C(OC(C)[C@@H](NC(=O)OCc2ccccc2)C(=O)OC(C)(C)C)OC(COC(C)=O)C(OC(C)=O)C1OC(C)=O (stereo partly specified) | 43.4 µM (inactive) | > 100 µM (inactive) | > 100 µM (inactive) |  | > 100 µM (inactive) | > 100 µM (inactive) | > 100 µM (inactive) | > 100 µM (inactive) | > 100 µM (inactive) | > 100 µM (inactive) | > 100 µM (inactive) | 39.4 µM (inactive) |  | > 100 µM (inactive) | 2.85 µM (inactive) | > 100 µM (inactive) | 69.5 µM (inactive) | > 100 µM (inactive) | 53.3 µM (inactive) | 79.8 µM (inactive)
13 | C1=CC2C(C3CN(c4ccccc4)N=C13)C1C3C4C=CC21C=CC43 (stereo unspecified) | > 100 µM (inactive) | > 100 µM (inactive) | > 100 µM (inactive) | > 100 µM (inactive) | > 100 µM (inactive) | 80 µM (inactive) | > 100 µM (inactive) | > 100 µM (inactive) | > 78.5 µM (inactive) | > 100 µM (inactive) | > 100 µM (inactive) | > 100 µM (inactive) | 0.189 µM (active) | 0.172 µM (active) | > 65.3 µM (inactive) | > 100 µM (inactive) | > 100 µM (inactive) |  | > 69.3 µM (inactive) | 
14 | CCC1=NC(N/N=C/c2ccco2)=N/C1=C\c1ccco1 | > 100 µM (inactive) | > 100 µM (inactive) |  | > 100 µM (inactive) | > 100 µM (inactive) | > 100 µM (inactive) | > 100 µM (inactive) |  | > 100 µM (inactive) |  | > 100 µM (inactive) | 52 µM (inactive) | > 100 µM (inactive) | > 100 µM (inactive) |  | > 100 µM (inactive) | > 100 µM (inactive) | > 100 µM (inactive) | > 100 µM (inactive) | > 100 µM (inactive)
15 | Cc1ncc([N+](=O)[O-])n1CCNC(=O)CCCCn1ccnc1[N+](=O)[O-] | > 100 µM (inactive) | > 100 µM (inactive) | > 100 µM (inactive) | > 100 µM (inactive) |  |  | > 100 µM (inactive) | > 100 µM (inactive) |  | > 100 µM (inactive) | > 100 µM (inactive) | > 100 µM (inactive) | > 100 µM (inactive) |  | 97.5 µM (inactive) | > 100 µM (inactive) | > 100 µM (inactive) | > 100 µM (inactive) | > 100 µM (inactive) | > 100 µM (inactive)
